Data on 16 molecules can be found in PubChem BioAssay (NCI).

The structures appear in SMILES notation. “And” between values parts separate entries of the source, which are not always exact repeats. Identical values can stand only once.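 Briefly, cells in 96-well plates were exposed to five compound concentrations for 48 h, and endpoints were estimated by linear interpolation. GI50 is the concentration that inhibits growth by half. Definition used: TGI = concentration required for complete inhibition of growth.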

Test systems include DU-145 prostate; MDA-MB-231 breast; RPMI-8226 leukemia; HT29 colon; CCRF-CEM leukemia; SK-MEL-2 melanoma; KM12 colon; SW-620 colon; COLO 205 colon; SNB-75 CNS.
Experiment in all cases: NCI anticancer screen, dose series, 48 h

Take `N=C(c1cccs1)C1(N2CCCCC2)CCCCC1`: the TGI came out at 30.4 µM with DU-145 prostate; 31 µM with MDA-MB-231 breast; 33.8 µM in the assay with RPMI-8226 leukemia; 34.5 µM in the assay on HT29 colon; 36.2 µM in the assay with CCRF-CEM leukemia; 31.3 µM with SK-MEL-2 melanoma. Also, the TGI was found to be 34.6 µM in the assay on KM12 colon and 34.7 µM in the assay on SW-620 colon.

As for `Cc1cc(O)c(C(C)C)cc1N=Cc1ccccc1O`, the TGI was 17.4 µM in the assay on DU-145 prostate; 3.59 µM in the assay with MDA-MB-231 breast; 42.3 µM in the assay on COLO 205 colon; above 74 µM in the assay on HT29 colon; 0.0897 µM in the assay on CCRF-CEM leukemia; 25.4 µM with SK-MEL-2 melanoma. The TGI in the assay on KM12 colon is 14 µM; in the assay with SW-620 colon it was above 20.4 µM.

For the molecule `O=P1(c2ccccc2)C2=CCC=CC2C(c2ccccc2)N1Cc1ccccc1` (stereo unspecified), the TGI in the assay with DU-145 prostate came out at 31.4 µM; in the assay on MDA-MB-231 breast it was 33.6 µM; with COLO 205 colon, 29 µM; in the assay on RPMI-8226 leukemia it was 30.5 µM; in the assay on HT29 colon it was 24.2 µM; with CCRF-CEM leukemia, 34.9 µM. The results for the TGI in the assay with SK-MEL-2 melanoma, in the assay on KM12 colon and in the assay on SW-620 colon were 29.9 µM, 28.3 µM and 43 µM, respectively.

For the molecule `O=C(Oc1cccc(Cl)c1)c1cc2cc(CCl)ccc2oc1=O`, the TGI was 62.9 µM in the assay with DU-145 prostate; above 100 µM in the assay with SNB-75 CNS; above 100 µM with MDA-MB-231 breast; 45.9 µM in the assay with COLO 205 colon; above 100 µM with RPMI-8226 leukemia; above 100 µM in the assay with HT29 colon. The TGI in the assay on SK-MEL-2 melanoma is 28.9 µM; in the assay on KM12 colon it was above 100 µM; in the assay with SW-620 colon, above 100 µM.

`CN1B(c2ccccc2)N(C)C(=O)N(C)C1=O`: the TGI in the assay with DU-145 prostate, in the assay with SNB-75 CNS, in the assay with COLO 205 colon, in the assay on RPMI-8226 leukemia, in the assay with HT29 colon and with CCRF-CEM leukemia was above 100 µM each time. For the same molecule, the TGI in the assay on SK-MEL-2 melanoma, in the assay on KM12 colon and in the assay with SW-620 colon was above 100 µM each time.

On to `N#C/C(=C\c1ccccc1Br)C(=O)c1ccccc1`, for which the TGI in the assay on COLO 205 colon is above 100 µM; in the assay with RPMI-8226 leukemia, 51.6 µM; in the assay on HT29 colon it was above 100 µM; with CCRF-CEM leukemia it was 38.6 µM; with SK-MEL-2 melanoma, above 100 µM; in the assay on KM12 colon, above 100 µM. Moreover, the TGI in the assay on SW-620 colon was above 45.7 µM.

Consider `CC1(C)c2ccccc2C(O)C12CCC(=O)CC2` (stereo unspecified), for which the TGI in the assay on DU-145 prostate, with MDA-MB-231 breast, with COLO 205 colon, with RPMI-8226 leukemia, in the assay with HT29 colon and with SK-MEL-2 melanoma was above 100 µM in each case. Further, the TGI in the assay with KM12 colon and in the assay on SW-620 colon was above 100 µM throughout.

On to `CCN(CC)CCNc1ccc2ncn3c4cc(=O)ccc4c(O)c1c23`, for which the TGI in the assay on SNB-75 CNS worked out at 21.6 µM; in the assay with COLO 205 colon, 16.6 µM; with RPMI-8226 leukemia, 9.97 µM; in the assay on HT29 colon it was 11.5 µM; in the assay on CCRF-CEM leukemia, 16.8 µM; in the assay with SK-MEL-2 melanoma, 21.7 µM. For the same molecule, the figures for the TGI in the assay on KM12 colon and with SW-620 colon were 22.1 µM and 21 µM, respectively.

Take `CC1(C)C2CCC(N)(C2)C1O` (stereo unspecified): the TGI in the assay with DU-145 prostate, in the assay with SNB-75 CNS, in the assay with COLO 205 colon, in the assay with RPMI-8226 leukemia, in the assay with CCRF-CEM leukemia and in the assay with SK-MEL-2 melanoma was above 100 µM throughout. Also, the TGI in the assay on KM12 colon and with SW-620 colon was above 100 µM each time.

For the molecule `CCCCCCCCCCSCC(CO)NC(=O)/C=C/c1c(C)[nH]c(=O)[nH]c1=O` (stereo unspecified), the TGI is 12.9 µM and 18.1 µM in the assay with SNB-75 CNS; 8.39 µM and 17.6 µM in the assay with COLO 205 colon; above 50 µM in the assay with RPMI-8226 leukemia; above 50 µM in the assay on HT29 colon; 3.97 µM and 2.97 µM in the assay with CCRF-CEM leukemia; 14.3 µM and 5.19 µM with SK-MEL-2 melanoma. The TGI with KM12 colon and with SW-620 colon was above 50 µM in each case. Further, the GI50 in the assay with RPMI-8226 leukemia was 19.7 µM.

With `Cc1ccc2c(=O)c(-c3n[nH]c(=S)s3)c[nH]c2n1`, the TGI with DU-145 prostate, in the assay with MDA-MB-231 breast, in the assay with COLO 205 colon, with RPMI-8226 leukemia, in the assay with HT29 colon and in the assay with CCRF-CEM leukemia was above 100 µM throughout. Also, the TGI with SK-MEL-2 melanoma, in the assay on KM12 colon and in the assay on SW-620 colon was above 100 µM throughout.

Consider `C=CCC(SC)C1=C(C)C(=O)c2ccccc21` (stereo unspecified), for which the TGI in the assay with DU-145 prostate, in the assay with MDA-MB-231 breast, in the assay with RPMI-8226 leukemia, with HT29 colon, in the assay with CCRF-CEM leukemia and with SK-MEL-2 melanoma was above 10 µM throughout. The TGI with KM12 colon and in the assay with SW-620 colon was above 10 µM throughout.

Consider `O=C1C[C@H](c2ccc(O)c(O)c2)Oc2cc(O)cc(O)c21`, for which the TGI in the assay on SNB-75 CNS, in the assay on COLO 205 colon, in the assay with RPMI-8226 leukemia, in the assay on HT29 colon, with CCRF-CEM leukemia and with SK-MEL-2 melanoma was above 100 µM in each case. The TGI in the assay on KM12 colon and in the assay on SW-620 colon was above 100 µM throughout.

Turning to `CN1C(=O)N(C)C2(CCN(CCCCCCF)CC2)C1=O`, the TGI in the assay on DU-145 prostate, in the assay with SNB-75 CNS, in the assay on MDA-MB-231 breast, in the assay on COLO 205 colon, in the assay with RPMI-8226 leukemia and in the assay with HT29 colon was above 100 µM throughout. In addition, the TGI with CCRF-CEM leukemia, with KM12 colon and with SW-620 colon was above 100 µM throughout.

For the molecule `COc1ccc(N2C(=O)C3CC4=CC(=O)C[C@H]4[C@H]32)cc1` (stereo partly specified), the TGI in the assay with DU-145 prostate, in the assay with SNB-75 CNS, in the assay with MDA-MB-231 breast, in the assay with COLO 205 colon, in the assay on RPMI-8226 leukemia and in the assay on SK-MEL-2 melanoma was above 100 µM throughout. In addition, the TGI with KM12 colon and with SW-620 colon was above 100 µM in each case.

On to `COc1cc2c(c(OC)c1OC)-c1ccc(SC)cc1C(=O)CC2`, for which the TGI is above 100 µM in the assay on SNB-75 CNS; above 47.7 µM in the assay on RPMI-8226 leukemia; below 0.01 µM in the assay on HT29 colon; above 100 µM in the assay on CCRF-CEM leukemia; above 100 µM in the assay on SK-MEL-2 melanoma; above 100 µM in the assay with SW-620 colon.
